Assay [1] concerns Sarcoma S180 lines. To be noted: cyclophosphamide alone.
Text: Kunming Hybrid mice with weight of 18-22 g were inoculated with Sarcoma S180 lines.
The experimental medicament and animals of this experiment were the same as that of Experimental Example 2.
For assay [2], the system named is Platelet Aggregation. As to the kind of experiment: platelet aggregation of rabbits (Born Turbidimetry). Type of assay: in vivo. As to conditions: 45 mg/kg i.v. once per day for 3 days. How it is done: Before administration, the artery in ears was punctured and the blood was taken to measure the platelet aggregation rate. According to the level of platelet aggregation and the body weight, the 48 rabbits were randomly divided into 6 groups (8 rabbits per group):
The administration groups were administered medicaments intravenously through ear edges with the said dosages, and the Control group was injected with equivalent volume of 0.9% sodium chloride, once per day for continuously 3 days. After the final medicaments administration, the artery in ears was punctured, the blood sample was taken and the platelet aggregation rate was measured.
The artery in ears was punctured with a siliconized injector to take blood sample, which was anticoagulated with the citron sodium solution (blood:anticoagulant=9:1). The blood sample solution was centrifuged at 200×g for 8 minutes, and the supernatant, that is, the Platelet Rich Plasma (PRP) was taken. The rest of the solution was centrifuged at 2200×g for 10 minutes, and the top clear part, that is, the Platelet Poor Plasma (PPP) was taken. The count of Platelets in PRP was about 4.0×10^5/mm^3. According to the Born Turbidimetry, the turbidity tube with 200 μl PRP and a small magnetic stick was placed in the platelet aggregation instrument and kept at 37° C. for one minute. After PPP being standardized, an inducer was added with stirring to induce the aggregation. The end concentration of the inducer is: 47.6 μM/L (ADP), 782.0 μM/L (M), and […] (Collagen). The influence of the medicaments upon the Platelet Aggregation was analyzed according to the aggregation curves and maximal aggregation rate printed by the instrument. The calculating formula for maximal aggregation rate was as follows:
aggregation=Transmittance after PRP Aggregation−Transmittance before PRP Aggregation×100% rate Transmittance of PPP−Transmittance before PRP Aggregation

Assay [3] deals with thrombosis in vitro. As to the kind of experiment: thrombosis in vitro of rats (Chandler method). In kind it is in vivo. As to conditions: 90 mg/kg i.v., once per day for 3 days. How it is done:
(§1) All the animal groups were intravenously injected the medicaments through caudal vein with the said dose of 4 ml/kg, once per day for continuously 3 days. 30 minutes after the final injection, animals were anaesthetized with pentobarbital sodium (30.0 mg/kg). 2 ml blood was then drawn from the abdominal aorta for the measurement of the thrombosis in vitro and 3 ml blood (heparinized) was drawn for the measurement of blood viscosity.
Measurement of the thrombuses in vitro: According to Chandler method in vitro, the blood was immediately filled and sealed in a rotating ring with the volume less than ½ ring (1.8 ml). It was placed on a thrombosis Instrument and rotated for 10 minutes (with experimental temperature of 37° C.). Then the thrombus was spilled out and washed with physiological saline. The length was measured and the wet quality was weighed. The thrombus bar was placed in an 80° C. oven for 3 hours. It was weighed after the weight getting stable.

Assay [4] in a line: blood viscosity of rats. Type of assay: in vivo. As to conditions: 90 mg/kg i.v., once per day for 3 days. How it is done: as §1
Measurement of the blood viscosity: 0.8 ml blood was taken from the 3 ml blood sample (heparinized) to measure the whole blood viscosity. The rest of the sample was centrifuged at 650×g for 10 minutes. 0.8 ml supernatant was taken to measure the blood plasma viscosity.

As to `O=P1(N(CCCl)CCCl)NCCCO1` (stereo not shown) [cyclophosphamide], the “tumor body (M ± SD)” value in assay [1] came out at 0.89 ± 0.55 volume %. In assay [1] (compared with the Blank Control group), the “Rate of Inhibiting tumors” value stood at 65%Δ.

Consider `CC(=O)Oc1ccccc1C(=O)O.NCCCCC(N)C(=O)O` (racemic) [Aspirin-DL-Lysine], for which, in assay [2] (Inducer AA), the “Aggregation Rate After administration” value is 0.24 ± 0.69% and the “Aggregation Rate Value Difference (after − before)” value (shortened to “Aggregation Rate Value Difference”) was −63.65 ± 7.05 %. In addition, in assay [2] (Inducer ADP), the “Aggregation Rate After administration” value is 57.78 ± 6.01% and the “Aggregation Rate Value Difference” value is recorded as 8.85 ± 6.37%. Also, in assay [2] (Inducer Collagen), the “Aggregation Rate After administration” value is 45.29 ± 5.72% and the “Aggregation Rate Value Difference” value is recorded as −21.19 ± 4.24 %. Also, in assay [3], the “Thrombus Dry weight” value is recorded as 18.9 ± 1.4 mg, the “Thrombus Length” value was 18.8 ± 1.5 mm and the “Thrombus Wet weight” value came out at 100.1 ± 12.5 mg. In assay [4], the “Blood viscosity (100 S^−1)” value was 2.38 ± 1.12; the “Whole blood viscosity, High shearing (200 S^−1)” value is reported as 3.37 ± 0.58 CP; the “Whole blood viscosity, Low shearing (5 S^−1)” value is 6.35 ± 1.03 CP; the “Whole blood viscosity, Middle shearing (30 S^−1)” value amounted to 4.71 ± 0.95 CP. In addition, the “Whole blood viscosity, Middle shearing (100 S^−1)” value in assay [4] came out at 3.81 ± 0.91 CP.

(Values after US20080206374A1 (priority 2003, published 2008).)
